# Experimental data from patent publication US20240122897A1, “DMT SALTS AND THEIR USE TO TREAT BRAIN INJURY” (ALGERNON PHARMACEUTICALS INC., priority 2021, published 2024).
# Like-named read-outs stand apart in the source and are kept apart here.
# Columns and labels:
# [1] = test system: primary rat cortical neurons; assay: Neurite outgrowth of primary rat cortical neurons (MAP-2 immunocytochemistry)
# [2] = test system: cerebral ischemia-reperfusion injury; conditions: rat; cited from earlier work
# [3] = in vivo, cited from earlier work
# sigma-1 receptor [4] = target: T1, sigma-1 receptor (Homo sapiens, UniProt Q99720)
# Experimental: (§1) IC50 values were determined by a non-linear, least squares regression analysis using MathIQ™ (ID Business Solutions Ltd., UK). […] The Hill coefficient (nH), defining the slope of the competitive binding curve, was calculated using MathIQ™.
# (§2) Biochemical assay results are presented as the percent inhibition of specific binding or activity. All other results are expressed in terms of that assay's quantitation method. Primary screening in duplicate with semi-quantitative data (e.g., estimated IC50, Ki and nH) are shown.
# [5] = target: T2, Serotonin (5-Hydroxytryptamine) 5-HT2A (Homo sapiens, UniProt P28223); assay: biochemical; type: binding
# T2 construct: purchased Eurofins Panlabs, Inc. 271650
# sigma-1 receptor [6] = target: T1, sigma-1 receptor; assay: biochemical; conditions: for IC50: IC50, estimated, duplicate; for Ki: Cheng and Prusoff
# Experimental: as §1, §2
# T2 sequence (P28223 whole entry): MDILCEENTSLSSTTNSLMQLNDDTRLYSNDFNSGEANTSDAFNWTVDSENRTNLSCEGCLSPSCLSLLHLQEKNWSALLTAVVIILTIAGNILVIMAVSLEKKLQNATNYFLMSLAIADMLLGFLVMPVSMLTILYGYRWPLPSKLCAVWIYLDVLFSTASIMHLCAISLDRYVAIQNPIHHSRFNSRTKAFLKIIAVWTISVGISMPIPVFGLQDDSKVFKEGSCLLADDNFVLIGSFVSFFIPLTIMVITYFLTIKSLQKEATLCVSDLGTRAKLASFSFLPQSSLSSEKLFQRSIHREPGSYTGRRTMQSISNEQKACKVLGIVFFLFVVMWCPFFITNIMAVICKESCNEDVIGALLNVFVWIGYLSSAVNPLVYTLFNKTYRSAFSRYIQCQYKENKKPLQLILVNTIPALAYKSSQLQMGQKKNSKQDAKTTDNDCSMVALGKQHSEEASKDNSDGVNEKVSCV
# T1 sequence (Q99720 whole entry): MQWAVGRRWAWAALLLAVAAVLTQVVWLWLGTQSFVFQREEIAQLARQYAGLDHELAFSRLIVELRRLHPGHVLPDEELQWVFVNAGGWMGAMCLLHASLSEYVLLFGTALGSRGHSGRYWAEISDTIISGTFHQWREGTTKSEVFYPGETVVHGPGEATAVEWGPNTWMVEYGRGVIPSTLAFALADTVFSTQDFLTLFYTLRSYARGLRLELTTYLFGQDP
Compound,"% Inh. (sigma-1 receptor [4]; 10 nM, 0.01 µM) [%]",% Inh. (sigma-1 receptor [4]; 0.03 μM) [%],% Inh. (sigma-1 receptor [4]; 0.1 μM) [%],% Inh. (sigma-1 receptor [4]; 0.5 μM) [%],% Inh. (sigma-1 receptor [4]; 1 μM) [%],% Inh. (sigma-1 receptor [4]; 5 μM) [%],% Inh. (sigma-1 receptor [4]; 10 μM) [%],% Inh. (sigma-1 receptor [4]; 16 μM) [%],nH (Hill coefficient) [5],% Inh. ([5]; 0.01 µM) [%],% Inh. ([5]; 0.03 μM) [%],% Inh. ([5]; 0.3 µM) [%],% Inh. ([5]; 1 μM) [%],IC50 [5] [nM],Ki [5] [nM],inhibition at 0.1 µM ([5]; read-out: % Inh.) [%],inhibition at 3 µM ([5]; read-out: % Inh.) [%],inhibition at 10 µM ([5]; read-out: % Inh.) [%],nH (Hill coefficient) (sigma-1 receptor [4]),% Inh. ([5]; 0.003 µM) [%],also measured
"CN(C)CCc1c[nH]c2ccccc12 [DMT, N, N-Dimethyltryptamine]",–,–,–,–,–,–,–,–,–,–,–,–,–,–,–,–,–,–,–,–,"neurite outgrowth of rat cortical neurons ([1]; DMT stimulation, overall): showed beneficial effects; functional recovery [2]: improved; infarct (dead cells) volume [2]: reduced; oral availability ([3]; po): not orally available; half-life [3]: 15 min"
"CN(C)CCc1c[nH]c2ccccc12 [N,N-Dimethyltryptamine nicotinate]",−6,−9,−3,−13,5,23,44,44,0.71,14,17,31,59,600,170,19,79,92,–,–,binding affinity to sigma-1-receptors (sigma-1 receptor [4]; at concentrations above 0.5 μM): good binding affinity; inhibition at 0.003 µM ([5]; read-out: % Inh.): 7%
"CN(C)CCc1c[nH]c2ccccc12 [N,N-Dimethyltryptamine pamoate]",−14,−10,0,1,6,45,–,77,0.92,10,20,–,86,190,54,34,95,100,1.35,2,"affinity to sigma-1 receptors compared to DMT fumarate (sigma-1 receptor [4]; at concentrations above 1 μM): better affinity; 5HT2A binding compared to DMT fumarate [5]: improved 5HT2A binding; inhibition at 0.3 µM ([5]; read-out: % Inh.): 56%; IC50 (sigma-1 receptor [6]): 6.31 µM; Ki (sigma-1 receptor [6]): 3.25 µM; inhibition at 10 µM (sigma-1 receptor [6]; read-out: % Inh., 10 μM): 64%"
CNC1(c2ccccc2Cl)CCCCC1=O (stereo not drawn) [Ketamine],–,–,–,–,–,–,–,–,–,–,–,–,–,–,–,–,–,–,–,–,"neurite outgrowth ([1]; 10 nM, 1-72 h stimulation): did not show any significant beneficial effects"
"CN(C)CCc1c[nH]c2ccccc12.O=C(O)/C=C/C(=O)O [N,N-Dimethyltryptamine fumarate, reference compound]",–,15,7,5,14,–,50,–,0.75,–,–,48,–,250,71,–,–,–,0.76,8,"% Inh. (sigma-1 receptor [4]; 10 nM): 6%; % Inh. ([5]; 0.1 μM): 26%; % Inh. ([5]; 3 µM): 93%; % Inh. ([5]; 10 μM): 98%; inhibition at 0.01 µM ([5]; read-out: % Inh.): 15%; inhibition at 0.03 µM ([5]; read-out: % Inh.): 24%; inhibition at 1 µM ([5]; read-out: % Inh.): 76%; IC50 (sigma-1 receptor [6]): 10.2 µM; Ki (sigma-1 receptor [6]): 5.28 µM; inhibition at 5 µM (sigma-1 receptor [6]; read-out: % Inh., 5 μM): 36%; inhibition at 16 µM (sigma-1 receptor [6]; read-out: % Inh., 16 μM): 59%"
